In article PMC8199216 (International Journal of Molecular Sciences, 2021):
“And” between values parts separate entries of the source, which are not always exact repeats. Equal values may be shown once.

Assays:
His-Spindlin1(49–262) [1] = target: T1, His-Spindlin1(49–262) (Homo sapiens, UniProt Q9Y657); conditions: fluorescence polarization
Description: (§3) To investigate the influence of these modifications on the Spindlin1 inhibitory activity, the fluorescence polarization assay established earlier [31] was used to determine the potency of the compounds.
(§4) Fluorescence polarization assays were carried out as described before [31]. […] For the controls, a buffer solution with the same DMSO concentration as the inhibitor solutions was added to the plate instead of the inhibitor solution, the negative control contained the H3(1–14)K4me3-Fluorescein without Spindlin1. The blank control contained buffer solution with DMSO. Every inhibitor concentration and the controls were done in triplicates. Fluorescence polarization values (mP) were determined after blank correction as IS−G×IP/IS+G×IP×1000 , where G is a device-specific factor and IS and IP are the fluorescence intensities of the S and P plane, respectively. […] Curve fitting was carried out using GraphPad Prism 7, applying a non-linear sigmoidal fit with a variable slope.

His-Spindlin1(49–262) [2] = target: T1, His-Spindlin1(49–262); test: biochemical
Description: as §3, §4

Human G9a (913–1193) = target: T2, Human G9a (913–1193) (Homo sapiens, UniProt Q96KQ7); test: Coupled enzyme fluorescent histone methyltransferase assay (SAM-SAH conversion); assay type: biochemical; conditions: fluorescence based coupled enzyme assay
T2 construct: Catalytic domains of Human G9a (913–1193); made in house
T2 sequence (Q96KQ7 913-1193): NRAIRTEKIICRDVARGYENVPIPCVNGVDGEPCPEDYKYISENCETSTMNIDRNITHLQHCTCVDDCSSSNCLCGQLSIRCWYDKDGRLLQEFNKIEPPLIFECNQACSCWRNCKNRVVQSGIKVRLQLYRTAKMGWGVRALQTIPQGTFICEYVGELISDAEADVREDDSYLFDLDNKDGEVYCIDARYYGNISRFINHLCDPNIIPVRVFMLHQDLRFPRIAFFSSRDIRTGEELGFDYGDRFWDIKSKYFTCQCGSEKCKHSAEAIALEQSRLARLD
Description: (§1) Full length of S. solfataricus S-adenosylhomocysteine hydrolase (SAHH) was cloned, expressed, and purified using the published protocol.
(§2) The assay was performed using the previously published protocol. Tested compounds were pre-dissolved in assay buffer (20 mM HEPES pH 7.5, 50 mM NaCl, 0.01% Triton X-100, 3 mM MgCl2, 0.1 mg/mL BSA) with 5 μM of purified SAHH, 1 unit of ADA, 10 μM of H3, and 5 nM of either G9a or GLP as 30 μL in black 96-well plate. […] After incubation for 10 min at room temperature, thiol fluorescent probe IV (20 μM, 50 μL) was added.

GLP (982–1266) = target: T3, GLP (982–1266) (Homo sapiens, UniProt Q9H9B1); test: as above; assay type: biochemical; conditions: fluorescence based coupled enzyme assay
T3 construct: GLP (982–1266) were cloned, expressed, and purified; made in house
T3 sequence (Q9H9B1 982-1266): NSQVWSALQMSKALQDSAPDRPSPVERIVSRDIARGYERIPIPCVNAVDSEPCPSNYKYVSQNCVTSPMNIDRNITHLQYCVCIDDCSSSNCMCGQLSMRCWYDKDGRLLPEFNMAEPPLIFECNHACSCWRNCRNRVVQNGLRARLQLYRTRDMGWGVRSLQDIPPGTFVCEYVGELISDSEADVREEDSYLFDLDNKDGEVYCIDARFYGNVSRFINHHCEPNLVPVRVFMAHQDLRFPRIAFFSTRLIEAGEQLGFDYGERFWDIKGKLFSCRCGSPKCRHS
Description: as §1, §2

[3] = read-out: Spin1 inhibition in percentage at specified concentration

T1 sequence (Q9Y657 49-262): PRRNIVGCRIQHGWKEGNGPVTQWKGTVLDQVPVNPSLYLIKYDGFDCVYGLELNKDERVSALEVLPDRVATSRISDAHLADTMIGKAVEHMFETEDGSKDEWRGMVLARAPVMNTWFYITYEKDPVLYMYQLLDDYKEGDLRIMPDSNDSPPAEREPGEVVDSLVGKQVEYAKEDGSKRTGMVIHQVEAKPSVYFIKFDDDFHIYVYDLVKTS

Compound	Spindlin1 inhibitory activity (in words) (His-Spindlin1(49–262) [1])	IC50 (Spindlin1 (Spin1))	IC50 (His-Spindlin1(49–262) [2]) [nM]	IC50 (Human G9a (913–1193)) [nM]	IC50 (GLP (982–1266)) [nM]	IC50 (GLP)	IC50 (G9a)	further results
COc1cc2c(cc1OCCN1CCCC1)N=C(N)C21CCCCC1 [1d]	Inactive	–	–	–	–	–	–	–
COc1cc2c(cc1OCCCN1CC[C@@H](O)C1)N=C(N)C21CCCC1 [1q (R)]	–	(R): 470 ± 27	470	–	–	–	–	–
COc1cc2c(cc1OCCCN1CC[C@H](O)C1)N=C(N)C21CCCC1 [1q (S)]	–	–	478	–	–	–	–	–
COc1cc2c(cc1OCCCN1CCC(O)C1)N=C(N)C21CCCC1 (stereo not shown)	–	(S): 478 ± 34	–	–	–	–	–	–
COc1cc2c(cc1OCCCN1CCCC1)N=C(N)C2(C)C [1p]	–	157 nM	157 ± 12	759	470	470 nM	759 nM	–
COc1cc2c(cc1OCCN1CCCC1)N=C(N)C21CCC1 [1e]	Inactive	–	–	–	–	–	–	–
CCC1(C)C(N)=Nc2cc(OCCCN3CC[C@@H](C)C3)c(OC)cc21 (stereo partly shown) [1t]	nanomolar range	467 nM	467 ± 15	> 20000	> 20000	> 20000 nM	> 20000 nM	–
COc1c(OCCCN2CCCC2)cc2c(c1OC)C1(CCCC1)C(N)=N2 [1j]	–	2500 nM	2500 ± 200	–	–	–	–	–
CCC1(C)C(N)=Nc2cc(OCCCN3Cc4ccccc4C3)c(OC)cc21 (stereo not shown) [1s]	nanomolar range	360 nM	360 ± 20	> 20000	> 20000	> 20000 nM	> 20000 nM	–
COc1cc2c(cc1OCCCN1CCC(O)C1)N=C(N)C21CCCC1 (racemic)	–	(rac): 584 ± 31	–	–	–	(rac): 4432	(rac): 2321	–
COc1c(OCCCN2CCCC2)cc2c(c1C#N)C1(CCCC1)C(N)=N2 [1h]	–	3900 nM	3900 ± 700	–	–	–	–	–
COc1c(OCCCN2CCCC2)cc2c(c1Cl)C1(CCCC1)C(N)=N2 [1i]	–	1600 nM	1600 ± 200	> 20000	> 20000	> 20000 nM	> 20000 nM	–
COc1cc2c(cc1OCCCN1CCCC1)N=C(N)C21CCCCC1 [1n]	–	255 nM	255 ± 35	779	527	527 nM	779 nM	–
CCC1(CC)C(N)=Nc2cc(OCCCN3CCCC3)c(OC)cc21 [1o]	–	1210 nM and 1210 ± 90 nM	1210 ± 90	> 20000	> 20000	> 20000 nM	> 20000 nM	–
CCOc1cc2c(cc1OCCCN1CCCC1)N=C(N)C21CCCCC1 [1l]	–	567 nM	567 ± 35	–	–	–	–	–
CCC1(C)C(N)=Nc2cc(OCCCN3CCCC3)c(OC)cc21 (stereo not shown) [1r]	–	408 nM	408 ± 35	3190	3180	3180 nM	3190 nM	–
CC(C)Oc1cc2c(cc1OCCCN1CCCC1)N=C(N)C21CCC1 [1m]	micromolar range	3300 nM	3300 ± 470	–	–	–	–	–
COc1c(OCCCN2CCCC2)cc2c(c1C(C)=O)C1(CCCC1)C(N)=N2 [1k]	–	11800 ± 210 nM	11800	–	–	–	–	–
COc1cc2c(cc1OCCCCN1CCCC1)N=C(N)C21CCCCC1 [1c]	inactive	–	–	> 20000	> 20000	> 20000 nM	> 20000 nM	% inhibition at 50 μM (Spindlin1 (Spin1)): 42% @ 50 μM [d]; inhibition at 50 µM (His-Spindlin1(49–262) [2]; [3]): 42%
COc1cc2c(cc1OCCCN1CCCC1)N=C(N)C21CCCC1 [1f]	–	–	–	431	334	334 nM	431 nM	–
COc1cc2c(cc1OCCCN1CCC(O)C1)N=C(N)C21CCCC1 (racemic) [1q (rac)]	–	–	584	2320	4430	–	–	–
COc1cc2c(cc1OCCCN1CCC(=O)C1)N=C(N)C21CCCC1 [1b]	weakly active	–	–	–	–	–	–	% inhibition at 100 μM (Spindlin1 (Spin1)): 81% @ 100 μM [d]; inhibition at 100 µM (His-Spindlin1(49–262) [2]; [3]): 81%
CCOc1c(OCCCN2CCCC2)cc2c(c1OCC)C1(CCCC1)C(N)=N2 [1a]	weakly active	–	–	–	–	–	–	% inhibition at 25 μM (Spindlin1 (Spin1)): 70% @ 25 μM [d]; inhibition at 25 µM (His-Spindlin1(49–262) [2]; [3]): 70%
COc1cc2c(cc1OCCCN1CCC(CO)C1)N=C(N)C21CCCC1 (stereo not shown) [1u]	–	1250 nM	1250 ± 50	> 20000	> 20000	> 20000 nM	> 20000 nM	–
CCOc1cc2c(cc1OCCCN1CCCC1)N=C(N)C21CCCC1 [1g]	–	–	–	243	2970	2970 nM	243 nM	–
